From patent US12643910B2, “Substituted pyrazolo[3,4-b]pyridines as ectonucleotide pyrophosphatase/phosphodiesterase 1 (ENPP1) modulators” (SANFORD BURNHAM PREBYS MEDICAL DISCOVERY INSTITUTE, priority 2019, dated 2026)

These molecules were tested against T1, human ENPP1 (Homo sapiens, UniProt P22413) (assay: ENPP1 assay with ATP substrate (Transcreener AMP2/GMP2 TR-FRET)). Conditions: 1 hour at room temperature.
T1 construct: made in house
T1 sequence (P22413 1-925): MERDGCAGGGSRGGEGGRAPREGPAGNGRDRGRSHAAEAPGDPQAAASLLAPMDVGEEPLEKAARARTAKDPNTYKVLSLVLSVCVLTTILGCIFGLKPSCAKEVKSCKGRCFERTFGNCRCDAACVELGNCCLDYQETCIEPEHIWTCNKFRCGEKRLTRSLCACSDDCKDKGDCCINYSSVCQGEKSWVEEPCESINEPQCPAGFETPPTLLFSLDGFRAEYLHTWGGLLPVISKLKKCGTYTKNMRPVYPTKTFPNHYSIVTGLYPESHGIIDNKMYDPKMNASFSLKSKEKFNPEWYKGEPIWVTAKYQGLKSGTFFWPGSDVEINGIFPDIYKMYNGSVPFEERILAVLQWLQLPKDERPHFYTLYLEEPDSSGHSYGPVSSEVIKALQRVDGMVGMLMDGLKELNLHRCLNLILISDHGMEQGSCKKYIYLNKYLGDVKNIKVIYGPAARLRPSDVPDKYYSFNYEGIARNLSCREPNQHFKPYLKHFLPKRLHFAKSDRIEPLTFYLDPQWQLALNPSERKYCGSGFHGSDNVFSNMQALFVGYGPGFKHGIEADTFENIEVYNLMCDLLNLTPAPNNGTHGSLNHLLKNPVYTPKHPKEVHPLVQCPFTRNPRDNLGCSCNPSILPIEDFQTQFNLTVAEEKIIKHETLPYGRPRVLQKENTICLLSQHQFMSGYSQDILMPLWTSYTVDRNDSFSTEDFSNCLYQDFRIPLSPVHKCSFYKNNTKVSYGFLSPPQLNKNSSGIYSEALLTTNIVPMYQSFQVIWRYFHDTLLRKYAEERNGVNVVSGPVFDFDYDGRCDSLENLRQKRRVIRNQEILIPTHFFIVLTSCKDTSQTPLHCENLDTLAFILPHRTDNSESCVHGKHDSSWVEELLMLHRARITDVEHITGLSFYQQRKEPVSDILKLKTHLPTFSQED
Format: biochemical
Text: Example B1: ENPP1 Assay with ATP Substrate
Ectonucleotide pyrophosphatase/phosphodiesterase 1 (ENPP1) hydrolyzes ATP, breaking it down into 5′-AMP and pyrophosphate. The 5′-AMP formed from the reaction is detected by Transcreener® AMP2/GMP2 TR-FRET Assay (Bellbrook), containing AMP-tracer (HiLyte 647) and anti-AMP Terbium (Tb) donor. 5′-AMP generated in the reaction competes with AMP-tracer for binding with Anti-AMP Tb donor, and decreases TR-FRET signal.
Different concentrations of ENPP1 inhibitors are added to dry assay plate, followed by 2 μl 300 nM ATP. The reaction is initiated with the addition of 2 μl 8.5 μM human ENPP1 (generated by SBP Protein group). The assay reaction mixture contains a buffer of 50 mM Tris, pH 7.5, 1 mM TCEP, 2 mM MgCl2, 0.005% Tween 20, and 1% DMSO. The reaction is stopped after 1 hour at room temperature by adding 2 μL of 2 nM AMP-tracer and 2 μl of 2 nM Anti-AMP Tb donor in the 50 mM Tris, pH 7.5, buffer containing 20 mM EDTA and 0.1% Prionex. After 2 hour additional incubation at room temperature, the generated signal is measured using BMG Lab PHERASTAR instrument. 100% activity control samples (containing enzyme, substrate, buffer: MAX) and no enzyme control samples (containing substrate and buffer: MIN) are utilized to calculate percent inhibition (%) for each compound concentration well (COMPOUND) as follows.
The IC50 values are determined by fitting the inhibition curves with 2-parameter variable slope model in Graphpad Prism software using percent inhibition vs compound concentration data: […]
c1ccc(-c2csc3nc(-c4ccccn4)nc(NCc4ccccn4)c23)cc1 [Example 1.2, (5-Phenyl-2-pyridin-2-yl-thieno[2,3-d]pyrimidin-4-yl)-pyridin-2-ylmethyl-amine] showed an IC50 of over 20 µM.
NS(=O)(=O)c1cccc(CNc2nc(-c3ccccn3)nc3scc(-c4ccccc4)c23)c1 [Example 1.12, 3-[(5-Phenyl-2-pyridin-2-yl-thieno[2,3-d]pyrimidin-4-ylamino)-methyl]-benzenesulfonamide] was tested, and the IC50 was 1 to 20 µM.
In the case of Cn1ncc(CNc2nc(-c3ccccn3)nc3scc(-c4ccccc4)c23)c1N [Example 1.34, (5-Amino-1-methyl-1H-pyrazol-4-ylmethyl)-(5-phenyl-2-pyridin-2-yl-thieno[2,3-d]pyrimidin-4-yl)-amine], the IC50 is reported as 1 to 20 µM.
Work on c1ccc(-c2csc3nc(-c4ccccn4)nc(NCc4ccco4)c23)cc1 [Example 1.35, Furan-2-ylmethyl-(5-phenyl-2-pyridin-2-yl-thieno[2,3-d]pyrimidin-4-yl)-amine] yielded an IC50 of 1 to 20 µM.
Work on CN(c1nc(-c2ccccn2)nc2scc(-c3ccccc3)c12)C1CCCC1 [Example 1.36, Cyclopentyl-methyl-(5-phenyl-2-pyridin-2-yl-thieno[2,3-d]pyrimidin-4-yl)-amine] yielded an IC50 of over 20 µM.
Molecule Cc1csc2nc(-c3ccccn3)nc(NCc3ccc(S(N)(=O)=O)s3)c12 [Example 1.37, 5-(((5-Methyl-2-(pyridin-2-yl)thieno[2,3-d]pyrimidin-4-yl)amino)methyl)thiophene-2-sulfonamide] has an IC50 of over 20 µM.
Cn1ncc2c(NCc3ccc(S(N)(=O)=O)cc3)nc(-c3ccccc3)nc21 [Example 2, 4-(((1-Methyl-6-phenyl-1H-pyrazolo[3,4-d]pyrimidin-4-yl)amino)methyl)-benzenesulfonamide] gave an IC50 of 1 to 20 µM.
With Cn1ncc2c(NCc3ccccc3)nc(-c3ccccn3)nc21 [Example 2.9, N-Benzyl-1-methyl-6-(pyridin-2-yl)-1H-pyrazolo[3,4-d]pyrimidin-4-amine] the IC50 was over 20 µM.
Molecule COc1ccc(CNc2nc(-c3ccccn3)nc3c2cnn3C)cc1 [Example 2.11, N-(4-Methoxybenzyl)-1-methyl-6-(pyridin-2-yl)-1H-pyrazolo[3,4-d]pyrimidin-4-amine] has an IC50 of over 20 µM.
Work on Cn1ncc2c(NCc3cccc(F)c3)nc(-c3ccccn3)nc21 [Example 2.12, N-(3-Fluorobenzyl)-1-methyl-6-(pyridin-2-yl)-1H-pyrazolo[3,4-d]pyrimidin-4-amine] yielded an IC50 of over 20 µM.
In the case of Cn1ncc2c(NCc3ccc(Cl)cc3)nc(-c3ccccn3)nc21 [Example 2.13, N-(4-Chlorobenzyl)-1-methyl-6-(pyridin-2-yl)-1H-pyrazolo[3,4-d]pyrimidin-4-amine], the IC50 is reported as over 20 µM.
In the case of Cn1ncc2c(NCc3ccc(S(N)(=O)=O)cc3)nc(-c3cccnc3)nc21 [Example 2.15, 4-(((1-Methyl-6-(pyridin-3-yl)-1H-pyrazolo[3,4-d]pyrimidin-4-yl)amino)methyl)-benzenesulfonamide], the IC50 is reported as 1 to 20 µM.
Cn1ncc2c(NCc3ccc(S(N)(=O)=O)cc3)nc(-c3ccncc3)nc21 [Example 2.16, 4-(((1-Methyl-6-(pyridin-4-yl)-1H-pyrazolo[3,4-d]pyrimidin-4-yl)amino)methyl)-benzenesulfonamide] gave an IC50 of over 20 µM.
In the case of Cn1ncc2c(NCc3ccncc3)nc(-c3ccccn3)nc21 [Example 2.17, 1-Methyl-6-(pyridin-2-yl)-N-(pyridin-4-ylmethyl)-1H-pyrazolo[3,4-d]pyrimidin-4-amine], the IC50 is reported as 1 to 20 µM.
For Cn1ncc2c(NCc3cccnc3)nc(-c3ccccn3)nc21 [Example 2.18, 1-Methyl-6-(pyridin-2-yl)-N-(pyridin-3-ylmethyl)-1H-pyrazolo[3,4-d]pyrimidin-4-amine], the IC50 was over 20 µM.
In the case of Cn1ncc2c(NCc3ccccn3)nc(-c3ccccn3)nc21 [Example 2.19, 1-Methyl-6-(pyridin-2-yl)-N-(pyridin-2-ylmethyl)-1H-pyrazolo[3,4-d]pyrimidin-4-amine], the IC50 is reported as over 20 µM.
For Cn1ncc2c(NCc3cccs3)nc(-c3ccccn3)nc21 [Example 2.21, 1-Methyl-6-(pyridin-2-yl)-N-(thiophen-2-ylmethyl)-1H-pyrazolo[3,4-d]pyrimidin-4-amine], the IC50 was over 20 µM.
Work on Cc1ccc(CNc2nc(-c3ccccn3)nc3c2cnn3C)o1 [Example 2.22, 1-Methyl-N-((5-methylfuran-2-yl)methyl)-6-(pyridin-2-yl)-1H-pyrazolo[3,4-d]pyrimidin-4-amine] yielded an IC50 of over 20 µM.
With Cn1ncc2c(NCc3ccco3)nc(-c3ccccn3)nc21 [Example 2.23, N-(Furan-2-ylmethyl)-1-methyl-6-(pyridin-2-yl)-1H-pyrazolo[3,4-d]pyrimidin-4-amine] the IC50 was over 20 µM.
For Cc1ccncc1/C=C/CNC1CCN(c2ncnc3c(Br)csc23)CC1 [Example 3.62, (E)-1-(7-Bromothieno[3,2-d]pyrimidin-4-yl)-N-(3-(4-methylpyridin-3-yl)allyl)piperidin-4-amine], the IC50 was under 0.1 µM.
Cc1ccncc1CCCNC1CCN(c2ncnc3ccsc23)CC1 [Example 3.63, N-(3-(4-Methylpyridin-3-yl)propyl)-1-(thieno[3,2-d]pyrimidin-4-yl)piperidin-4-amine] showed an IC50 of 1 to 20 µM.
In the case of O=C(CCc1ccc(F)cc1)NC1CCN(c2ncnc3c(Cl)csc23)CC1 [Example 3.64, N-(1-(7-Chlorothieno[3,2-d]pyrimidin-4-yl)piperidin-4-yl)-3-(4-fluorophenyl)propanamide], the IC50 is reported as 1 to 20 µM.
Cc1csc2c(N3CCC(NCCCc4ccncc4)CC3)nc(Cl)nc12 [Example 3.65, 1-(2-Chloro-7-methylthieno[3,2-d]pyrimidin-4-yl)-N-(3-(pyridin-4-yl)propyl)piperidin-4-amine] was tested, and the IC50 was 1 to 20 µM.
COc1nc(N2CCC(NCCCc3ccncc3)CC2)c2scc(C)c2n1 [Example 3.66, 1-(2-Methoxy-7-methylthieno[3,2-d]pyrimidin-4-yl)-N-(3-(pyridin-4-yl)propyl)piperidin-4-amine] gave an IC50 of 1 to 20 µM.
In the case of Cc1ccncc1CCCNC1CCN(c2nc(Cl)nc3c(C)csc23)CC1 [Example 3.68, 1-(2-Chloro-7-methylthieno[3,2-d]pyrimidin-4-yl)-N-(3-(4-methylpyridin-3-yl)propyl)piperidin-4-amine], the IC50 is reported as 1 to 20 µM.
CNc1nc(N2CCC(NCCCc3cnccc3C)CC2)c2scc(C)c2n1 [Example 3.69, N,7-Dimethyl-4-(4-((3-(4-methylpyridin-3-yl)propyl)amino)piperidin-1-yl)thieno[3,2-d]pyrimidin-2-amine] gave an IC50 of 1 to 20 µM.
COc1nc(N2CCC(NCCCc3cnccc3C)CC2)c2scc(C)c2n1 [Example 3.70, 1-(2-Methoxy-7-methylthieno[3,2-d]pyrimidin-4-yl)-N-(3-(4-methylpyridin-3-yl)propyl)piperidin-4-amine] showed an IC50 of 0.1 to 1 µM.
In the case of Cc1ccncc1CCCNC1CCN(c2nc(NCCO)nc3c(C)csc23)CC1 [Example 3.71, 2-((7-Methyl-4-(4-((3-(4-methylpyridin-3-yl)propyl)amino)piperidin-1-yl)thieno[3,2-d]pyrimidin-2-yl)amino)ethanol], the IC50 is reported as 0.1 to 1 µM.
Molecule Cc1csc2c(N3CCC(NC/C=C/c4ccncc4)CC3)ncnc12 [Example 3.76, (E)-1-(7-methylthieno[3,2-d]pyrimidin-4-yl)-N-(3-(pyridin-4-yl)allyl)piperidin-4-amine] has an IC50 of 0.1 to 1 µM.
Cc1csc2c(N3CCC(NC(=O)C4CC4c4ccccc4)CC3)ncnc12 (stereo not drawn) [Example 3.79, N-(1-(7-Methylthieno[3,2-d]pyrimidin-4-yl)piperidin-4-yl)-2-phenylcyclopropanecarboxamide] was tested, and the IC50 was 1 to 20 µM.
